Laboratory results as given in patent US11008323B2, “Substituted tricyclic 1,4-benzodiazepinone derivatives as allosteric modulators of group II metabotropic glutamate receptors” (Domain Therapeutics, priority 2015, dated 2021).
Counter-ions that a name gives are not always drawn.

How the values were obtained:
human mGluR3 (hmGluR3) = molecular target: T1, human mGluR3 (hmGluR3) (Homo sapiens, UniProt Q14832); assay: Human mGluR3 positive allosteric modulator evaluation using Ca++ functional assay; format: cell-based; details: hmGluR3 transiently over-expressed in HEK-293 cells; stimulated by EC50 glutamate concentration; intracellular Ca2+ (Fluo4AM, FLIPR Tetra)
T1 construct: expressed in transfected cells; host or cells: HEK-293 cells, transient co-transfection by electroporation
How it was run: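 HEK-293 cells transiently co-expressing hmGluR3, a chimeric G protein and two glutamate transporters; Fluo4 calcium read on FLIPR. Compound alone for 10 min (agonist), then EC50 glutamate for 3 min (PAM); 20-point curves gave EC50, duplicate, two independent runs.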

T1 sequence (Q14832 23-879): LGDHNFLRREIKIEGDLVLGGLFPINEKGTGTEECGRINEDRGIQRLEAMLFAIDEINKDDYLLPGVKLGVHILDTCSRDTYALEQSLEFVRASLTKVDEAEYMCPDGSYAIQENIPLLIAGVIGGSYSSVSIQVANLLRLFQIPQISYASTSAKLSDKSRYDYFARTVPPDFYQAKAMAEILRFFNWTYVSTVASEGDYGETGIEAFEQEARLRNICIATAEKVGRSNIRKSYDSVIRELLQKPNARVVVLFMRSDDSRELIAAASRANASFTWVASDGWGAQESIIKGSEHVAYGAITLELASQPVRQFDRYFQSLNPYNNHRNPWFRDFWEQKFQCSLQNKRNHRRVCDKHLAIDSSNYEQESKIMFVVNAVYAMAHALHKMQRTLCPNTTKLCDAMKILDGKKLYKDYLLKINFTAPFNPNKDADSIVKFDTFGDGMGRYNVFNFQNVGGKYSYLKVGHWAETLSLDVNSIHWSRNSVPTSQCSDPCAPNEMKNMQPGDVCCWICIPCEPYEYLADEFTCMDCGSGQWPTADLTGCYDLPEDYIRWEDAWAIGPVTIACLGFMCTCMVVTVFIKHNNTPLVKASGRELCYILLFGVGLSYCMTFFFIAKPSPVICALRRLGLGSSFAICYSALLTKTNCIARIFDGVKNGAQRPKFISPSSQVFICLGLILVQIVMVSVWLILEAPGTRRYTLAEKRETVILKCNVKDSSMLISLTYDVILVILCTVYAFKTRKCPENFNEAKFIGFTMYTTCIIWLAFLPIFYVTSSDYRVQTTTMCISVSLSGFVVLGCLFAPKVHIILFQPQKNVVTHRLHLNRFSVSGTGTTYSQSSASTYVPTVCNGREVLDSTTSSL

| melting point [°C] | EC50 (human mGluR3 (hmGluR3)) [µM] | Structure (SMILES) |
| --- | --- | --- |
| > 250 | – | CN1C(=O)c2cccn2-c2cc(-c3ccncc3)ccc2C12CC2 (as salt: hydrochloride) [Example 22, 5-Methyl-9-(pyridin-4-yl)-spiro[benzo[f]pyrrolo[1,2-a][1,4]diazepine-6,1′-cyclopropan]-4(5H)-one] |
| > 250 | – | CN1C(=O)c2cccn2-c2cc(-c3cccnc3)ccc2C12CC2 (as salt: hydrochloride) [Example 23, 5-Methyl-9-(pyridin-3-yl)-spiro[benzo[f]pyrrolo[1,2-a][1,4]diazepine-6,1′-cyclopropan]-4(5H)-one] |
| 136 to 143 | – | CCc1ncccc1-c1ccc2c(c1)-n1cccc1C(=O)N(C)C21CC1 (as salt: hydrochloride) [Example 24, 5-Methyl-9-(2-ethylpyridin-3-yl)-spiro[benzo[f]pyrrolo[1,2-a][1,4]diazepine-6,1′-cyclopropan]-4(5H)-one] |
| 205 to 215 | – | Cc1ccc(-c2ccc3c(c2)-n2cccc2C(=O)N(C)C32CC2)cn1 (as salt: hydrochloride) [Example 25, 5-Methyl-9-(6-methylpyridin-3-yl)-spiro[benzo[f]pyrrolo[1,2-a][1,4]diazepine-6,1′-cyclopropan]-4(5H)-one] |
| 183 to 193 | – | Cc1cc(-c2ccc3c(c2)-n2cccc2C(=O)N(C)C32CC2)ccn1 (as salt: hydrochloride) [Example 26, 5-Methyl-9-(2-methylpyridin-4-yl)-spiro[benzo[f]pyrrolo[1,2-a][1,4]diazepine-6,1′-cyclopropan]-4(5H)-one] |
| > 250 | – | Cc1cnccc1-c1ccc2c(c1)-n1cccc1C(=O)N(C)C21CC1 (as salt: hydrochloride) [Example 38, 5-Methyl-9-(3-methylpyridin-4-yl)-spiro[benzo[f]pyrrolo[1,2-a][1,4]diazepine-6,1′-cyclopropan]-4(5H)-one] |
| > 250 | – | CN1C(=O)c2cccn2-c2cc(-c3cnc(N)c(C(F)(F)F)c3)ccc2C12CC2 (as salt: hydrochloride) [Example 40, 5-Methyl-9-(6-amino-5-trifluoromethyl-pyridin-3-yl)-spiro[benzo[f]pyrrolo[1,2-a][1,4]diazepine-6,1′-cyclopropan]-4(5H)-one] |
| > 250 | – | CN1C(=O)c2cccn2-c2cc(-c3ccc4nccn4c3)ccc2C12CC2 (as salt: hydrochloride) [Example 41, 5-Methyl-9-(imidazo[1,2-a]pyridin-6-yl)-spiro[benzo[f]pyrrolo[1,2-a][1,4]diazepine-6,1′-cyclopropan]-4(5H)-one] |
| 191 to 199 | – | CN1C(=O)c2cccn2-c2cc(-c3ccc(N4CCOCC4)nc3)ccc2C12CC2 (as salt: hydrochloride) [Example 42, 5-Methyl-9-(6-morpholin-4-yl-pyridin-3-yl)-spiro[benzo[f]pyrrolo[1,2-a][1,4]diazepine-6,1′-cyclopropan]-4(5H)-one] |
| 188 to 193 | – | CN1C(=O)c2cccn2-c2cc(-c3ccc(N4CCCCC4)nc3)ccc2C12CC2 (as salt: hydrochloride) [Example 43, 5-Methyl-9-(3,4,5,6-tetrahydro-2H-[1,2′]bipyridinyl-5′-yl)-spiro[benzo[f]pyrrolo[1,2-a][1,4]diazepine-6,1′-cyclopropan]-4(5H)-one] |
| 210 to 220 | – | CN1C(=O)c2cccn2-c2cc(C3=CCN(c4ccncn4)CC3)ccc2C12CC2 (as salt: hydrochloride) [Example 47, 5-Methyl-9-(1-pyrimidin-4-yl-1,2,3,6-tetrahydro-pyridin-4-yl)-spiro[benzo[f]pyrrolo[1,2-a][1,4]diazepine-6,1′-cyclopropan]-4(5H)-one] |
| > 250 | – | Cc1ccc(-c2ccc3c(c2)-n2cccc2C(=O)N(C)C32CC2)c(C)n1 (as salt: hydrochloride) [Example 56, 5-Methyl-9-(2,6-dimethylpyridin-3-yl)-spiro[benzo[f]pyrrolo[1,2-a][1,4]diazepine-6,1′-cyclopropan]-4(5H)-one] |
| 123 to 129 | – | Cc1nccnc1-c1ccc2c(c1)-n1cccc1C(=O)N(C)C21CC1 (as salt: hydrochloride) [Example 58, 5-Methyl-9-(3-methyl-pyrazin-2-yl)-5,6-spiro[benzo[f]pyrrolo[1,2-a][1,4]diazepine-6,1′-cyclopropan]-4(5H)-one] |
| 140 to 147 | – | Cc1ncncc1-c1ccc2c(c1)-n1cccc1C(=O)N(C)C21CC1 (as salt: hydrochloride) [Example 59, 5-Methyl-9-(4-methyl-pyrimidin-5-yl)-spiro[benzo[f]pyrrolo[1,2-a][1,4]diazepine-6,1′-cyclopropan]-4(5H)-one] |
| 150 to 157 | – | CCCc1ncccc1-c1ccc2c(c1)-n1cccc1C(=O)N(C)C21CC1 (as salt: hydrochloride) [Example 61, 5-Methyl-9-(2-propylpyridin-3-yl)-spiro[benzo[f]pyrrolo[1,2-a][1,4]diazepine-6,1′-cyclopropan]-4(5H)-one] |
| 160 to 180 | – | CN1C(=O)c2cccn2-c2cc(-c3cccnc3C3CC3)ccc2C12CC2 (as salt: hydrochloride) [Example 62, 5-Methyl-9-(2-cyclopropylpyridin-3-yl)-spiro[benzo[f]pyrrolo[1,2-a][1,4]diazepine-6,1′-cyclopropan]-4(5H)-one] |
| 200 to 208 | – | Cc1ccnc(C)c1-c1ccc2c(c1)-n1cccc1C(=O)N(C)C21CC1 (as salt: hydrochloride) [Example 65, 5-Methyl-9-(2,4-dimethylpyridin-3-yl)-spiro[benzo[f]pyrrolo[1,2-a][1,4]diazepine-6,1′-cyclopropan]-4(5H)-one] |
| 174 to 188 | – | Cc1ncccc1-c1cc(F)c2c(c1)-n1cccc1C(=O)N(C)C21CC1 (as salt: hydrochloride) [Example 73, 7-Fluoro-5-methyl-9-(2-methyl-pyridin-3-yl)-spiro[benzo[f]pyrrolo[1,2-a][1,4]diazepine-6,1′-cyclopropan]-4(5H)-one] |

| melting point [°C] | EC50 (human mGluR3 (hmGluR3)) [µM] | Structure (SMILES) |
| --- | --- | --- |
| – | < 0.1 | CCc1cc2n(c1)-c1cc(-c3cccnc3C)ccc1C1(CC1)N(C)C2=O [Example 197] |
| – | < 0.1 | Cc1cc2n(c1)-c1cc(-c3ccc(C)nc3)ccc1C1(CC1)N(C)C2=O [Example 198] |
| – | < 0.1 | CCc1ncccc1-c1ccc2c(c1)-n1cc(C)cc1C(=O)N(C)C21CC1 [Example 199] |
| – | < 0.1 | Cc1ncccc1-c1ccc2c(c1)-n1cc(C(F)F)cc1C(=O)N(C)C21CC1 [Example 201] |
| – | 0.1 to 1 | CCc1ncccc1-c1ccc2c(c1)-n1cc(CO)cc1C(=O)N(C)C21CC1 [Example 203] |
| – | < 0.1 | COCc1cc2n(c1)-c1cc(-c3ccc(C)nc3)ccc1C1(CC1)N(C)C2=O [Example 205] |
| – | < 0.1 | CCc1ncccc1-c1ccc2c(c1)-n1cc(COC)cc1C(=O)N(C)C21CC1 [Example 206] |
| – | > 1 | Cc1ncccc1-c1ccc2c(c1)N1CCCC1C(=O)N(C)C21CC1 (stereo not drawn) [Example 209, 5-Methyl-9-(2-methylpyridin-3-yl)-1,2,3,3a-tetrahydro-spiro[benzo[f]pyrrolo[1,2-a][1,4]diazepine-6,1′-cyclopropan]-4(5H)-one] |
| – | > 1 | CCC1c2ccc(Br)cc2-n2cccc2C(=O)N1C (stereo not drawn) [Example 214, 9-Bromo-5-methyl-6-ethyl-5,6-dihydro-benzo[f]pyrrolo[1,2-a][1,4]diazepin-4-one] |
| – | > 1 | Cc1ncccc1-c1ccc2c(c1)-n1cncc1C(=O)N(C)C2 [Example 215, 5-Methyl-9-(2-methylpyridin-3-yl)-5,6-dihydro-4H-benzo[f]imidazo[1,5-a][1,4]diazepin-4-one] |
| – | > 1 | Cc1ncccc1-c1ccc2c(c1)-n1ccnc1C(=O)N(C)C2 [Example 216, 5-Methyl-9-(2-methylpyridin-3-yl)-5,6-dihydro-4H-benzo[f]imidazo[1,2-a][1,4]diazepin-4-one] |
| – | > 1 | Cc1ncccc1-c1ccc2c(c1)-n1nccc1C(=O)N(C)C2 [Example 217, 5-Methyl-9-(2-methylpyridin-3-yl)-5,6-dihydro-4H-benzo[f]pyrazolo[1,5-a][1,4]diazepin-4-one] |
| – | 0.1 to 1 | Cc1ncccc1-c1ccc2c(c1)-n1cccc1C(=O)N(C)C2C (stereo not drawn) [Example 218, 5,6-Dimethyl-9-(2-methyl-pyridin-3-yl)-5,6-dihydro-benzo[f]pyrrolo[1,2-a][1,4]diazepin-4-one] |
| – | < 0.1 | CC1c2ccc(-c3ccc(N(C)C)nc3)cc2-n2cccc2C(=O)N1C (stereo not drawn) [Example 219, 9-(6-Dimethylamino-pyridin-3-yl)-5,6-dimethyl-5,6-dihydro-benzo[f]pyrrolo[1,2-a][1,4]diazepin-4-one] |
| – | 0.1 to 1 | CCC1c2ccc(-c3cccnc3C)cc2-n2cccc2C(=O)N1C (stereo not drawn) [Example 220, 6-Ethyl-5-methyl-9-(2-methyl-pyridin-3-yl)-5,6-dihydro-benzo[f]pyrrolo[1,2-a][1,4]diazepin-4-one] |
| – | > 1 | CN1C(=O)c2cccn2-c2cc(Cl)ccc2C1(C)C [Example 222, 9-Chloro-5,6,6-trimethyl-5,6-dihydro-benzo[f]pyrrolo[1,2-a][1,4]diazepin-4-one] |
| – | 0.1 to 1 | Cc1ncccc1-c1ccc2c(c1)-n1cccc1C(=O)N(C)C2(C)C [Example 223, 5,6,6-Trimethyl-9-(2-methyl-pyridin-3-yl)-5,6-dihydro-benzo[f]pyrrolo[1,2-a][1,4]diazepin-4-one] |

| Structure (SMILES) | melting point [°C] | EC50 (human mGluR3 (hmGluR3)) [µM] |
| --- | --- | --- |
| CN1C(=O)c2cccn2-c2cc(C3=CCNCC3)ccc2C12CC2 (as salt: hydrochloride) [Example 46, 5-Methyl-9-(1,2,3,6-tetrahydro-pyridin-4-yl)-spiro[benzo[f]pyrrolo[1,2-a][1,4]diazepine-6,1′-cyclopropan]-4(5H)-one] | 208 to 215 | – |
